Experimental data: US10457709B2, “Antimicrobial peptides, their variants and uses” (priority 2015, dated 2019)
Read-outs that look alike come from different tables or passages of the source. Square brackets hold non-standard residues; d marks the D form. Peptide text beside a SMILES is read from it.

Tests used:
[1] = tested on: MRSA strains (S. aureus COL); assay: MIC, synergistic activity with Ertapenem (4 μg/ml); format: cell-based, Staphylococcus aureus; conditions: Ertapenem 4 μg/ml; D-form peptide
Method: Minimum inhibition concentrations (MICs) were determined against Escherichia coli (ATCC 25922), Staphylococcus aureus (ATCC 25923), Klebsiella pneumoniae (ATCC 10031) and Pseudomonas aeruginosa (ATCC 27853). Also clinical strains of E. coli, K. pneumoniae, E. cloacae, P. aeruginosa, Serratia marcescens, Proteus mirabilis, S. pneumoniae, Acinetobacter baumannii, A. johnsonii and S. aureus were used for MICs assays. Additionally, clinical strains of yeast including Candida albicans, C. glabrata, C. parapsilosis and C. quillermondiae were used. The susceptibility of these microorganisms to Chain peptides were determined using micro broth dilution assay. Colonies of the respective microorganism from Muller Hinton (MH) agar plates incubated overnight were suspended in MH broth media and final concentration of microorganism was adjusted to 5.0×10^5 cfu/ml. An aliquot of 10 μl of each Chain peptide, or gentamicin, tetracycline as reference antibiotics were added in differing concentrations along with 90 μl of bacterial suspension to 96 well polypropylene plates and incubated at 37° C. for 20 to 24 hours. Concentrations of Chain peptides and reference antibiotics ranged from 0.125 to 128 μg/ml and the MICs were recorded as the lowest concentration with no visual growth of bacteria. Similarly, antifungal MICs were tested in Potato dextrose broth.
Peptides Chain 104, Chain 105, Chain 201, Chain 308, Chain 310 were tested against antibiotic-sensitive strains of S. aureus RN4220 and methicillin resistant strains of S. aureus COL (MRSA). Chain peptides comprising of either L- or D-form amino acids were tested against these bacteria, and the D-form peptides were found have better activity compared to L-form (Table 6). Synergistic activity of chain peptides along with Ertapenem (4 μg/ml) was tested to know whether it will influence the activity against MRSA strains. […] Chain 310 has the best antibacterial activity against the MRSA strains with a MIC of 0.06 & 0.03 μg/ml along with Ertapenem (4 μg/ml) for both forms of L and D-peptides (Table 6).

[2] = tested on: Pseudomonas aeruginosa (ATCC 27853); assay: microbe, parasite or virus in culture; format: cell-based
Summary of the method: (§1)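 Colonies from overnight MH agar plates were suspended in MH broth and adjusted to 5.0×10^5 cfu/ml. Peptide or reference antibiotic was then added at concentrations from 0.125 to 128 μg/ml, and plates were incubated at 37° C. for 20 to 24 hours before visual scoring of growth.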

[3] = tested on: Klebsiella pneumoniae (ATCC 10031); assay: microbe, parasite or virus in culture; format: cell-based
Summary of the method: as §1

[4] = tested on: Escherichia coli (ATCC 25922); assay: microbe, parasite or virus in culture; format: cell-based
Summary of the method: as §1

[5] = tested on: Pseudomonas aeruginosa (ATCC 27853); format: cell-based; conditions: Peptides 50 μg, Gentamycin 5 μg, diameter including the wells
Method: (§2) The radial diffusion assay (RDA) was carried out as described by Andersen et al. (2010). Briefly, 30 ml of 1/10 Muller-Hinton broth (MHB) supplemented with 1% agarose and 5.0×10^5 CFU/ml S. aureus or E. coli or K. pneumoniae, P. aeruginosa cells was poured into a single-well omnitray (Nunc) and overlaid with a TSP 96-well plate. […] The peptides were also tested against Fusarium oxysporum and Verticillium dahliae, for which ⅓ potato dextrose agarose was used. To test the synergistic effect of peptides, each peptide was mixed in equimolar concentrations. Mix1 (met1-12), Mix2 (met3, 4 and 5), Mix3 (met8, 9 and 10), Mix4 (met11, 12) and Mix5 (8, 9, 10, 11, 12) were prepared and tested against E. coli and S. aureus. Gentamicin and vancomycin were included as positive controls for bacteria and amphotericin B was used as the control for fungi.
(§3) By using rational design techniques, we have designed variants of peptides by incorporating or replacing various amino acids in the original peptides. Thus, we have designed and modified Chain 100, Chain 200 and Chain 300 with tryptophan (W), arginine (R) and lysine (K) at various positions to improve antimicrobial activity (FIGS. 4a-c and 5a-c). In some peptides we have also used other amino acids such as Leucine (L), Cysteine (C), Isoleucine (I), Phenylalanine (F) and Alanine (A). For synthesis, 32 variants and 3 original peptides were selected based on the various parameters such as positive charge, aliphatic index and instability index. Peptides variants were tested by using radial diffusion assay against Escherichia coli (ATCC 25922), Staphylococcus aureus (ATCC 25923), Klebsiella pneumoniae (ATCC 10031) and Pseudomonas aeruginosa (ATCC 27853) (FIGS. 6a-c). The zone of inhibition ranged between 10-18 mm for Escherichia coli and Staphylococcus aureus, 6-18 mm & 8-18 mm for Pseudomonas aeruginosa and Klebsiella pneumonia respectively (Table 2). For Gentamicin it was between 22-24 mm. Antifungal activity was tested for promising antibacterial peptides (Chains 104, 105, 109, 201, 204, 306, 307, 308, 310) against Aspergillus flavus (DSM 1959) and Penicillium chrysogenum (DSM 1075). All these peptides has activity at a concentration of 20 μg, Amphotericin B was used as a positive control at 20 μg (FIG. 7).

[6] = tested on: Klebsiella pneumoniae (ATCC 10031); format: cell-based; conditions: Peptides 50 μg, Gentamycin 5 μg, diameter including the wells
Method: as §2, §3

[7] = tested on: Staphylococcus aureus (ATCC 25923); format: cell-based; conditions: Peptides 50 μg, Gentamycin 5 μg, diameter including the wells
Method: as §2, §3

[8] = tested on: Escherichia coli (ATCC 25922); format: cell-based; conditions: Peptides 50 μg, Gentamycin 5 μg, diameter including the wells
Method: as §2, §3

Molecule	MIC against MRSA strains along with Ertapenem [1]	Minimum inhibitory concentration, Pseudomonas aeruginosa (ATCC 27853) [2]	Minimum inhibitory concentration, Klebsiella pneumoniae (ATCC 10031) [3]	Minimum inhibitory concentration, Escherichia coli (ATCC 25922) [4]	Inhibition zone, Pseudomonas aeruginosa [5]	Inhibition zone, Pseudomonas aeruginosa ([5]; listed as Gentamycin)	Inhibition zone, Klebsiella pneumoniae [6]	Inhibition zone, Klebsiella pneumoniae ([6]; listed as Gentamycin)	Inhibition zone, Staphylococcus aureus [7]	Inhibition zone, Staphylococcus aureus ([7]; listed as Gentamycin)	Inhibition zone, Escherichia coli [8]	Inhibition zone, Escherichia coli ([8]; listed as Gentamycin)
CC(C)C[C@@H](NC(=O)[C@@H](CCCCN)NC(=O)[C@@H](CCCCN)NC(=O)[C@@H](Cc1ccccc1)NC(=O)[C@@H](CC(C)C)NC(=O)[C@@H](Cc1c[nH]c2ccccc12)NC(=O)[C@@H](CCCNC(=N)N)NC(=O)[C@@H](Cc1c[nH]c2ccccc12)NC(=O)[C@@H](CCCCN)NC(=O)[C@@H](CCCNC(=N)N)NC(=O)[C@H](N)CCCCN)C(=O)O [Chain310D] (H-[dK][dR][dK][dW][dR][dW][dL][dF][dK][dK][dL]-OH)	0.03 µg/mL											
Gentamicin [reference compound]		0.25 µg/mL	0.25 µg/mL	1 µg/mL	22-24 mm	24 mm	22-24 mm	22 mm	22-24 mm	24 mm	22-24 mm	22 mm
